Data from PubChem BioAssay AID1259407 (Chemical Carcinogenesis Research Information System (CCRIS), 2018).
Activity calls are given as the source filed them. How the calls were made is not given here.

Tested on: CCRIS mutagenicity, Ames/micronucleus/aberration tests
Assay: CCRIS mutagenicity studies
Conditions: Test System: AMES SALMONELLA TYPHIMURIUM

Measured: mutagenic call

CCNc1nc(Cl)nc(NC(C)C)n1
inactive: Strain/Indicator: TA97, Metabolic Activation: HAMSTER, LIVER, S-9, AROCLOR 1254 (10%), Method: PREINCUBATION inactive; negative | Strain/Indicator: TA97, Metabolic Activation: HAMSTER, LIVER, S-9, AROCLOR 1254 (30%), Method: PREINCUBATION inactive; negative | Strain/Indicator: TA97, Metabolic Activation: NONE, Method: PREINCUBATION inactive; negative | Strain/Indicator: TA97, Metabolic Activation: NONE, Method: STANDARD PLATE inactive; negative | Strain/Indicator: TA97, Metabolic Activation: RAT, LIVER, S-9, AROCLOR 1254 (10%), Method: PREINCUBATION inactive; negative | Strain/Indicator: TA97, Metabolic Activation: RAT, LIVER, S-9, AROCLOR 1254 (30%), Method: PREINCUBATION inactive; negative | Strain/Indicator: TA97, Metabolic Activation: RAT, LIVER, S-9, AROCLOR 1254, Method: STANDARD PLATE inactive; negative | Strain/Indicator: TA97A, Metabolic Activation: NONE, Method: STANDARD PLATE inactive; negative | Strain/Indicator: TA97A, Metabolic Activation: RAT, LIVER, S-9, AROCLOR 1254, Method: STANDARD PLATE inactive; negative | Strain/Indicator: TA98, Metabolic Activation: HAMSTER, LIVER, S-9, AROCLOR 1254 (10%), Method: PREINCUBATION inactive; negative | Strain/Indicator: TA98, Metabolic Activation: HAMSTER, LIVER, S-9, AROCLOR 1254 (30%), Method: PREINCUBATION inactive; negative | Strain/Indicator: TA98, Metabolic Activation: NONE inactive; negative | Strain/Indicator: TA98, Metabolic Activation: NONE, Method: PREINCUBATION inactive; negative | Strain/Indicator: TA98, Metabolic Activation: PIG, LIVER, S-9, SODIUM PHENOBARBITAL AND BETA-NAPHTHOFLAVONE, Method: STANDARD PLATE inactive; negative | Strain/Indicator: TA98, Metabolic Activation: RAT, LIVER, S-9, AROCLOR 1254 inactive; negative | Strain/Indicator: TA98, Metabolic Activation: RAT, LIVER, S-9, AROCLOR 1254 (10%), Method: PREINCUBATION inactive; negative | Strain/Indicator: TA98, Metabolic Activation: RAT, LIVER, S-9, AROCLOR 1254 (30%), Method: PREINCUBATION inactive; negative | Strain/Indicator: TA98, Metabolic Activation: RAT, LIVER, S-9, AROCLOR 1254, Method: STANDARD PLATE inactive; negative | Strain/Indicator: TA98, Metabolic Activation: S-9, Method: STANDARD PLATE inactive; negative | Strain/Indicator: TA100, Metabolic Activation: HAMSTER, LIVER, S-9, AROCLOR 1254 (10%), Method: PREINCUBATION inactive; negative | Strain/Indicator: TA100, Metabolic Activation: HAMSTER, LIVER, S-9, AROCLOR 1254 (30%), Method: PREINCUBATION inactive; negative | Strain/Indicator: TA100, Metabolic Activation: NONE inactive; negative | Strain/Indicator: TA100, Metabolic Activation: NONE, Method: PREINCUBATION inactive; negative | Strain/Indicator: TA100, Metabolic Activation: PIG, LIVER, S-9, SODIUM PHENOBARBITAL AND BETA-NAPHTHOFLAVONE, Method: STANDARD PLATE inactive; negative | Strain/Indicator: TA100, Metabolic Activation: RAT, LIVER, S-9, AROCLOR 1254 inactive; negative | Strain/Indicator: TA100, Metabolic Activation: RAT, LIVER, S-9, AROCLOR 1254 (10%), Method: PREINCUBATION inactive; negative | Strain/Indicator: TA100, Metabolic Activation: RAT, LIVER, S-9, AROCLOR 1254 (30%), Method: PREINCUBATION inactive; negative | Strain/Indicator: TA100, Metabolic Activation: RAT, LIVER, S-9, AROCLOR 1254, Method: STANDARD PLATE inactive; negative | Strain/Indicator: TA100, Metabolic Activation: S-9, Method: STANDARD PLATE inactive; negative | Strain/Indicator: TA102, Metabolic Activation: NONE inactive; negative | Strain/Indicator: TA102, Metabolic Activation: NONE, Method: STANDARD PLATE inactive; negative | Strain/Indicator: TA102, Metabolic Activation: RAT, LIVER, S-9, AROCLOR 1254 inactive; negative | Strain/Indicator: TA102, Metabolic Activation: RAT, LIVER, S-9, AROCLOR 1254, Method: STANDARD PLATE inactive; negative | Strain/Indicator: TA1535, Metabolic Activation: HAMSTER, LIVER, S-9, AROCLOR 1254 (10%), Method: PREINCUBATION inactive; negative | Strain/Indicator: TA1535, Metabolic Activation: HAMSTER, LIVER, S-9, AROCLOR 1254 (30%), Method: PREINCUBATION inactive; negative | Strain/Indicator: TA1535, Metabolic Activation: NONE inactive; negative | Strain/Indicator: TA1535, Metabolic Activation: NONE, Method: PREINCUBATION inactive; negative | Strain/Indicator: TA1535, Metabolic Activation: NONE, Method: STANDARD PLATE inactive; negative | Strain/Indicator: TA1535, Metabolic Activation: RAT, LIVER, S-9, AROCLOR 1254 inactive; negative | Strain/Indicator: TA1535, Metabolic Activation: RAT, LIVER, S-9, AROCLOR 1254 (10%), Method: PREINCUBATION inactive; negative | Strain/Indicator: TA1535, Metabolic Activation: RAT, LIVER, S-9, AROCLOR 1254 (30%), Method: PREINCUBATION inactive; negative | Strain/Indicator: TA1535, Metabolic Activation: RAT, LIVER, S-9, AROCLOR 1254, Method: STANDARD PLATE inactive; negative | Strain/Indicator: TA1537, Metabolic Activation: HAMSTER, LIVER, S-9, AROCLOR 1254 (10%), Method: PREINCUBATION inactive; negative | Strain/Indicator: TA1537, Metabolic Activation: HAMSTER, LIVER, S-9, AROCLOR 1254 (30%), Method: PREINCUBATION inactive; negative | Strain/Indicator: TA1537, Metabolic Activation: NONE inactive; negative | Strain/Indicator: TA1537, Metabolic Activation: NONE, Method: PREINCUBATION inactive; negative | Strain/Indicator: TA1537, Metabolic Activation: NONE, Method: STANDARD PLATE inactive; negative | Strain/Indicator: TA1537, Metabolic Activation: RAT, LIVER, S-9, AROCLOR 1254 inactive; negative | Strain/Indicator: TA1537, Metabolic Activation: RAT, LIVER, S-9, AROCLOR 1254 (10%), Method: PREINCUBATION inactive; negative | Strain/Indicator: TA1537, Metabolic Activation: RAT, LIVER, S-9, AROCLOR 1254 (30%), Method: PREINCUBATION inactive; negative | Strain/Indicator: TA1537, Metabolic Activation: RAT, LIVER, S-9, AROCLOR 1254, Method: STANDARD PLATE inactive; negative | Strain/Indicator: TA1538, Metabolic Activation: NONE, Method: STANDARD PLATE inactive; negative | Strain/Indicator: TA1538, Metabolic Activation: RAT, LIVER, S-9, AROCLOR 1254, Method: STANDARD PLATE inactive; negative
